The results in this text go back to PMC4505066, “Insights into the Recruitment of Class IIa Histone Deacetylases (HDACs) to the SMRT/NCoR Transcriptional Repression Complex” (The Journal of Biological Chemistry, 2015).

Where two headings read alike, the source gives them in different places. No end group written: not given here.

Assay [1] addresses T1, HDAC4 catalytic domain (wild type) (Homo sapiens, UniProt P56524).
T1 construct: we purified the recombinant catalytic domains of HDACs 4, 5, 7, and 9; hexa-histidine tag (N, cleaved yes); S-tag (N, cleaved yes); made in house; host or cells: Escherichia coli Rosetta (pET30)
Nature of the assay: Fluorescence anisotropy binding of BODIPY-TMR labeled GSI motif peptides to HDAC4. Background: In fluorescence polarisation assays a small probe gives low polarisation when free and higher when bound to something large.
Protocol: Immediately prior to the fluorescence anisotropy assays the HDACs were concentrated and buffer exchanged into 1× PBS, 0.5 mM Tris(2-carboxyethyl)-phosphine and the protein concentration was determined by A280 in 6 M guanidine HCl. Protein was dispensed into 96-well black plates prior to a 2-fold serial dilution in reaction buffer (1× PBS, 0.01% Triton X-100, 0.1 mg/ml of BSA). Inhibitors were preincubated with HDACs for 30 min at a 2:1 ratio before serial dilution. Labeled peptide was added to a final concentration of 1 μM in a 50-μl reaction volume. […] Data were analyzed using GraphPad Prism, assuming non-linear fit with one-site binding to fulfill the equation y = Bmax × x/(Kd + x).

Assay [2] has as its target T2, H976Y gain-of-function (GOF) HDAC4 catalytic domain (Homo sapiens, UniProt P56524, H976Y).
T2 construct: the H976Y gain-of-function (GOF) HDAC4 catalytic domain; hexa-histidine tag (N, cleaved yes); S-tag (N, cleaved yes); made in house; host or cells: Escherichia coli Rosetta (pET30)
T2 sequence (P56524 655-1084 H976Y limits assumed): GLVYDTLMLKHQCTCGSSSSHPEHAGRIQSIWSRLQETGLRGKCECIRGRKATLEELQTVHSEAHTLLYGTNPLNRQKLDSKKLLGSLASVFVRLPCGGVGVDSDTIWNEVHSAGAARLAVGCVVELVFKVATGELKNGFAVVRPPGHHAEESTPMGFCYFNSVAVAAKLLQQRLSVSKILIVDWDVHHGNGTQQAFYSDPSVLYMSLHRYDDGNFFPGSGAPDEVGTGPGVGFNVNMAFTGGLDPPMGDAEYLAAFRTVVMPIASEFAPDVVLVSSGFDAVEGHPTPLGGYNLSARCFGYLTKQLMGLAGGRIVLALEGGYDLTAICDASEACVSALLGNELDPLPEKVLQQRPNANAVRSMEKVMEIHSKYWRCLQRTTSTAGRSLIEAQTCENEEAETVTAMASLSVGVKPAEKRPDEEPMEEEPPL
Nature of the assay: Fluorescence anisotropy binding of GSI peptide to H976Y gain-of-function HDAC4.
Protocol: Peptides were coupled to BODIPY-TMR by incubation in 18 MΩ water at a 5:1 molar ratio for 2 h at room temperature with continual stirring. Following incubation, buffer was exchanged into 1× PBS, 0.5 mM Tris(2-carboxyethyl)phosphine using a PD-10 column (GE Healthcare). Labeled peptides were concentrated using an Amicon centrifugal concentrator. Immediately prior to the fluorescence anisotropy assays the HDACs were concentrated and buffer exchanged into 1× PBS, 0.5 mM Tris(2-carboxyethyl)-phosphine and the protein concentration was determined by A280 in 6 M guanidine HCl. Protein was dispensed into 96-well black plates prior to a 2-fold serial dilution in reaction buffer (1× PBS, 0.01% Triton X-100, 0.1 mg/ml of BSA). Inhibitors were preincubated with HDACs for 30 min at a 2:1 ratio before serial dilution. Labeled peptide was added to a final concentration of 1 μM in a 50-μl reaction volume. […] Data were analyzed using GraphPad Prism, assuming non-linear fit with one-site binding to fulfill the equation y = Bmax × x/(Kd + x).

Another assay has as its target T3, HDAC4cd H675A (Homo sapiens, UniProt P56524, H675A).
T3 construct: we purified the recombinant catalytic domains of HDACs 4, 5, 7, and 9; hexa-histidine tag (N, cleaved yes); S-tag (N, cleaved yes); made in house; host or cells: Escherichia coli Rosetta (pET30)
Put plainly: Fluorescence anisotropy binding of GSI peptide to HDAC4 H675A mutant. The note with it: Fig. 3C, zinc chelating residue mutant. On the procedure:
(§1) Peptides were coupled to BODIPY-TMR by incubation in 18 MΩ water at a 5:1 molar ratio for 2 h at room temperature with continual stirring. Following incubation, buffer was exchanged into 1× PBS, 0.5 mM Tris(2-carboxyethyl)phosphine using a PD-10 column (GE Healthcare). Labeled peptides were concentrated using an Amicon centrifugal concentrator. Immediately prior to the fluorescence anisotropy assays the HDACs were concentrated and buffer exchanged into 1× PBS, 0.5 mM Tris(2-carboxyethyl)-phosphine and the protein concentration was determined by A280 in 6 M guanidine HCl. Protein was dispensed into 96-well black plates prior to a 2-fold serial dilution in reaction buffer (1× PBS, 0.01% Triton X-100, 0.1 mg/ml of BSA). Inhibitors were preincubated with HDACs for 30 min at a 2:1 ratio before serial dilution. Labeled peptide was added to a final concentration of 1 μM in a 50-μl reaction volume. Measurements were recorded using an excitation wavelength of 531 nm and emission wavelength of 595 nm. Data were analyzed using GraphPad Prism, assuming non-linear fit with one-site binding to fulfill the equation y = Bmax × x/(Kd + x).

The next assay deals with T4, HDAC9 catalytic domain (Homo sapiens, UniProt Q9UKV0).
T4 construct: we purified the recombinant catalytic domains of HDACs 4, 5, 7, and 9; hexa-histidine tag (N, cleaved yes); S-tag (N, cleaved yes); made in house; host or cells: Escherichia coli Rosetta (as for HDAC4)
Nature of the assay: Fluorescence anisotropy binding of labeled GSI peptide to HDAC9. Conditions: Fig. 2B, labeled wild type peptide 1 μM. On the procedure: (§2) Wild type peptide was obtained from Biomatik. Mutant peptides were synthesized in house using a CEM microwave peptide synthesizer. Peptides for use in fluorescence anisotropy assays were synthesized with an extra N-terminal cysteine.
as §1

The target of another assay is T5, HDAC5 catalytic domain (Homo sapiens, UniProt Q9UQL6).
T5 construct: we purified the recombinant catalytic domains of HDACs 4, 5, 7, and 9; hexa-histidine tag (N, cleaved yes); S-tag (N, cleaved yes); made in house; host or cells: Escherichia coli Rosetta (as for HDAC4)
Nature of the assay: Fluorescence anisotropy binding of labeled GSI peptide to HDAC5. Conditions: Fig. 2B, labeled wild type peptide 1 μM. On the procedure:
as §2, §1

For another assay, the target named is T6, HDAC4cd C667A (Homo sapiens, UniProt P56524, C667A).
T6 construct: we purified the recombinant catalytic domains of HDACs 4, 5, 7, and 9; hexa-histidine tag (N, cleaved yes); S-tag (N, cleaved yes); made in house; host or cells: Escherichia coli Rosetta (pET30)
Nature of the assay: Fluorescence anisotropy binding of GSI peptide to HDAC4 C667A mutant. Conditions: Fig. 3C, zinc chelating residue mutant. On the procedure: as §1

The target of the next assay is T7, HDAC7 catalytic domain (Homo sapiens, UniProt Q8WUI4).
T7 construct: we purified the recombinant catalytic domains of HDACs 4, 5, 7, and 9; hexa-histidine tag (N, cleaved yes); S-tag (N, cleaved yes); made in house; host or cells: Escherichia coli Rosetta (as for HDAC4)
T7 sequence (Q8WUI4 512-865 limits assumed): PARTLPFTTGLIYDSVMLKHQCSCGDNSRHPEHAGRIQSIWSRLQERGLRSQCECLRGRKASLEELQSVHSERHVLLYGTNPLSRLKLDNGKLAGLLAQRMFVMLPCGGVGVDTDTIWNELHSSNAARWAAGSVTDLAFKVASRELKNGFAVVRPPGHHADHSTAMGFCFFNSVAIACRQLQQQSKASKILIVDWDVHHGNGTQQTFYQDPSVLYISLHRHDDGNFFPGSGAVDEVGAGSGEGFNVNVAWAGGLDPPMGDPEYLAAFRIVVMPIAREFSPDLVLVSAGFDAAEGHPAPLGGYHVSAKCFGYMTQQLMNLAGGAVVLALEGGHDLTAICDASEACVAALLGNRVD
Nature of the assay: Fluorescence anisotropy binding of labeled GSI peptide to HDAC7. Conditions: Fig. 2B, labeled wild type peptide 1 μM. The protocol: as §2, §1

In a further assay the target is T8, full-length HDAC8 (Homo sapiens, UniProt Q9BY41).
T8 construct: along with full-length HDAC8 as an intrinsically active class I HDAC control; made in house
T8 sequence (Q9BY41 1-377): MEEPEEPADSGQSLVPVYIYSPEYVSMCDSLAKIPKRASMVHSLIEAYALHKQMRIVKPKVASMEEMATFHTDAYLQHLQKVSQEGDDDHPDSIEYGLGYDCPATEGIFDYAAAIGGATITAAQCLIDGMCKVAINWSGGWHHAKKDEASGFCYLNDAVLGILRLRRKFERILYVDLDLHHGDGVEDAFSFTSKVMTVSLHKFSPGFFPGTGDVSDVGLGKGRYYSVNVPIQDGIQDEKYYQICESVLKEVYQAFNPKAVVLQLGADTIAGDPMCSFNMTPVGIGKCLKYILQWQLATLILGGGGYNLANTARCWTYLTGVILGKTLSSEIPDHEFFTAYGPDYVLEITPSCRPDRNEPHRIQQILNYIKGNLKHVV
Nature of the assay: Fluorescence anisotropy binding of labeled GSI peptide to HDAC8. The note with it: Fig. 2B, class I HDAC8 control, labeled wild type peptide 1 μM. The protocol:
as §2, §1

The target of a further assay is T9, HDAC4cd C751A (Homo sapiens, UniProt P56524, C751A).
T9 construct: we purified the recombinant catalytic domains of HDACs 4, 5, 7, and 9; hexa-histidine tag (N, cleaved yes); S-tag (N, cleaved yes); made in house; host or cells: Escherichia coli Rosetta (pET30)
Put plainly: Fluorescence anisotropy binding of GSI peptide to HDAC4 C751A mutant. Conditions: Fig. 3C, zinc chelating residue mutant. On the procedure:
as §1

The mark [3] stands for this setting: Fig. 2A, fluorescence anisotropy, BODIPY-TMR labeled peptide 1 μM, HDAC4 2-fold serial dilution, one-site binding fit, read-out: Kd.

T1 sequence (P56524 655-1084 limits assumed): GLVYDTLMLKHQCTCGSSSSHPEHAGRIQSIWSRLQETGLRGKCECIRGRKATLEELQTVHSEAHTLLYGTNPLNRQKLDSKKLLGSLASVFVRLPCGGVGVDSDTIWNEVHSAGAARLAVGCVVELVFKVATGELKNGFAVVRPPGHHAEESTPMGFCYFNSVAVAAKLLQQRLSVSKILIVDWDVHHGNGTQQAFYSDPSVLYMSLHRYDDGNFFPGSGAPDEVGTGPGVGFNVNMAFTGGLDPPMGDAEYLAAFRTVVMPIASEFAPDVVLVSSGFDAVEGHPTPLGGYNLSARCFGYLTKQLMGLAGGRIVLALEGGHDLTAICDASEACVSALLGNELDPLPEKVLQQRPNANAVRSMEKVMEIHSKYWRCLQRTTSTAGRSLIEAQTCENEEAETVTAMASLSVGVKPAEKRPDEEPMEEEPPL
T5 sequence (Q9UQL6 684-1028 limits assumed, species assumed): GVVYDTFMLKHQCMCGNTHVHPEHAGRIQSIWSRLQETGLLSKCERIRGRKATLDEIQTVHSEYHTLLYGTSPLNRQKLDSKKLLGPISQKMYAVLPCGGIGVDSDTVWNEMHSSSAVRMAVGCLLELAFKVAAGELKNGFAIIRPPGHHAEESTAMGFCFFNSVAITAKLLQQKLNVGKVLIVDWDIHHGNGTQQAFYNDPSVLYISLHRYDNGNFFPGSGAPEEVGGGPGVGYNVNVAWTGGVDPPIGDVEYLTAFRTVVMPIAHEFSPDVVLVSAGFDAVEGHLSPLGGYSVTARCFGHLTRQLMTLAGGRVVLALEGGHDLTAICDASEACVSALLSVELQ
T4 sequence (Q9UKV0 631-978 limits assumed, species assumed): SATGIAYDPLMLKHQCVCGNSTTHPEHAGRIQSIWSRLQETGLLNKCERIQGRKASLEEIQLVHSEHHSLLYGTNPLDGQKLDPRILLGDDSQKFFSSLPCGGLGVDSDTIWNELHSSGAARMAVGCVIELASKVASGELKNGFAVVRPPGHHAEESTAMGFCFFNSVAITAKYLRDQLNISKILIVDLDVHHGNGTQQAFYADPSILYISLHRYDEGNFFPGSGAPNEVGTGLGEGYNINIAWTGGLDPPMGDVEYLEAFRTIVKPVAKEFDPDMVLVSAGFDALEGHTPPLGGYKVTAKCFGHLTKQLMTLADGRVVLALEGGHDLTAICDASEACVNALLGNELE
T9 sequence (P56524 655-1084 C751A limits assumed): as the sequence (P56524 655-1084 limits assumed) above, with C97A counted along it
T3 sequence (P56524 655-1084 H675A limits assumed): as the sequence (P56524 655-1084 limits assumed) above, with H21A counted along it
T6 sequence (P56524 655-1084 C667A limits assumed): as the sequence (P56524 655-1084 limits assumed) above, with C13A counted along it

CPRPLKEGSIVQGTPLKYDTG [T4V]: in assay [1] (setting [3]), the Kd – broadly, the equilibrium constant for the complex coming apart – turned out to be 16.9 ± 8.73 µM.

As for `O=C(CCCCCCC(=O)Nc1ccccc1)NO` [SAHA, suberoylanilide hydroxamic acid, reference compound], the “maximum polarization of GSI peptide binding in the presence of inhibitor” value in [1] (wild type HDAC4, 2-fold molar excess of inhibitor) is given as “lower maximum polarization”.

Consider `CCCC(=O)[O-].[Na+]` [Sodium Butyrate, sodium butyrate, reference compound], for which the Kd in [2] (Fig. 4A, H976Y GOF HDAC4 catalytic domain preincubated 30 min with 2-fold molar excess of the named inhibitor, Kd is that of the labeled GSI peptide, read-out: GOF Kd of the GSI peptide in the presence of the HDAC inhibitor) is 2.53 ± 0.24 µM; in assay [1] (Fig. 4A, wild type HDAC4 catalytic domain preincubated 30 min with 2-fold molar excess of the named inhibitor, Kd is that of the labeled GSI peptide, read-out: WT Kd of the GSI peptide in the presence of the HDAC inhibitor) it was 4.61 ± 0.26 µM.

On to CPRPLKEGSITAGTPLKYDTG [Q5A], for which the dissociation constant (Kd) in [1] (setting [3]) was found to be 5.47 ± 0.57 µM.

For `CC[C@H](C)[C@H](NC(=O)[C@H](CO)NC(=O)CNC(=O)[C@H](CCC(=O)O)NC(=O)[C@H](CCCCN)NC(=O)[C@H](CC(C)C)NC(=O)[C@@H]1CCCN1C(=O)[C@H](CCCNC(=N)N)NC(=O)[C@@H]1CCCN1C(=O)[C@@H](N)CS)C(=O)N[C@H](C(=O)N[C@@H](CCC(N)=O)C(=O)NCC(=O)N[C@H](C(=O)N1CCC[C@H]1C(=O)N[C@@H](CC(C)C)C(=O)N[C@@H](CCCCN)C(=O)N[C@@H](Cc1ccc(O)cc1)C(=O)N[C@@H](CC(=O)O)C(=O)N[C@H](C(=O)NCC(=O)O)[C@@H](C)O)[C@@H](C)O)[C@@H](C)O` [WT], the Kd was more than 1000 µM on HDAC4cd H675A; 2.94 ± 0.15 µM in [2] (Fig. 4A, H976Y GOF HDAC4 catalytic domain, DMSO, read-out: GOF Kd); 1.76 ± 0.18 µM in assay [2] (Fig. 4A, H976Y GOF HDAC4 catalytic domain, No Inhibitor, read-out: GOF Kd); 8.34 ± 1.07 µM at HDAC9 catalytic domain; 4.24 ± 0.59 µM at HDAC5 catalytic domain; more than 1000 µM at HDAC4cd C667A. For the same compound, the Kd is 4.44 ± 0.44 µM at HDAC7 catalytic domain; “no interaction” on full-length HDAC8; more than 1000 µM on full-length HDAC8 (read-out: Kd); 3.22 ± 0.2 µM in [1] (Fig. 4A, wild type HDAC4 catalytic domain, DMSO, read-out: WT Kd); 4.73 ± 0.31 µM in assay [1] (Fig. 4A, wild type HDAC4 catalytic domain, No Inhibitor, read-out: WT Kd); more than 1000 µM at HDAC4cd C751A.

For `CCCC(CCC)C(=O)O` [Valproic Acid, valproic acid, reference compound], the results for the dissociation constant Kd in [2] (read-out: GOF Kd of the GSI peptide in the presence of the HDAC inhibitor) and in assay [1] (read-out: WT Kd of the GSI peptide in the presence of the HDAC inhibitor) were 2.62 ± 0.18 µM and 3.38 ± 0.24 µM, respectively.

With CPRPLKEGSITEGTPLKYDTG [Q5E], the Kd in assay [1] (setting [3]) worked out at 17.7 ± 1.4 µM.

Turning to CPRPLKEGSITQGTALKYDTG [P8A], the Kd in [1] (setting [3]) was 47 ± 12.3 µM.

For CPRPLKEGSIAQGTPLKYDTG [T4A], in [1] (setting [3]), the Kd was 14.4 ± 4.26 µM.
